For one assay, the target named is BRD2 BD1 L/V (Homo sapiens, UniProt P25440, L110V). Put plainly: competitive AlphaLISA. The format is binding.
The next assay concerns the target BRD3 BD2 L/V (Homo sapiens, UniProt Q15059, L345V). Put plainly: competitive AlphaLISA. It counts as binding.
A further assay deals with BRD2 BD2 WT (Homo sapiens, UniProt P25440). The assay is described as follows: competitive AlphaLISA. The format is binding. (Bead proximity is the source of the signal in Alpha formats.)
Another assay deals with BRD4 BD2 WT (Homo sapiens, UniProt O60885). The assay is described as follows: competitive AlphaLISA. It counts as binding.
For another assay, the target named is LKB1 (Homo sapiens, UniProt Q15831). Put plainly: kinase Express Screen. It counts as biochemical. As to the method: (§1) Kinase Remaining activity
(§2) Table S9. 9-ME-1 Kinase Screen
(§3) Activity of panel of human kinases following treatment with 1 µM (2R, 3S)-7. Dundee MRC-PPU Express Screen
(§4) (http://www.kinase-screen.mrc.ac.uk/services/express-screen)

The target of the next assay is PDK1 (Homo sapiens, UniProt O15530). The assay is described as follows: kinase Express Screen. It counts as biochemical. As to the method:
as §1, §2, §3, §4

A further assay concerns the target HER4 (Homo sapiens, UniProt Q15303). The assay is described as follows: kinase Express Screen. It counts as biochemical. On the procedure: as §1, §2, §3, §4
Another assay has as its target p38a MAPK (Homo sapiens, UniProt Q16539). Put plainly: kinase Express Screen. It counts as biochemical. On the procedure:
as §1, §2, §3, §4

In another assay the target is GSK3b (Homo sapiens, UniProt P49841). The assay is described as follows: kinase Express Screen. The format is biochemical. On the procedure:
as §1, §2, §3, §4

The target in another assay is TTK (Homo sapiens, UniProt P33981). Put plainly: kinase Express Screen. It counts as biochemical. As to the method: as §1, §2, §3, §4
The next assay has as its target CB1 (h) (Homo sapiens, UniProt P21554). The assay is described as follows: CEREP ExpresSProfile. The note with it: read-out: Mean % of control specific binding (±SD).
In the next assay the target is CCR1 (h) (Homo sapiens, UniProt P32246). The assay is described as follows: CEREP ExpresSProfile. The note with it: read-out: Mean % of control specific binding (±SD).
In assay [1] the test system is GFP-BRD4 L/V constructs with NF-κB-RE/luc2P reporter in HEK293T cells. The assay is described as follows: NF-κB luciferase assay. It counts as cell-based, human. The note with it: 1 µM, inhibiting either individual BD of BRD4. As to the method:
To provide additional functional insights into the individual roles of BD1 vs. BD2 beyond chromatin binding, a luciferase assay was developed to monitor the expression of NF-κB target genes, inspired by work of Zou et al.[45] […] This luciferase induction was maintained with L/V mutations (but not L/A), consistent again with more WT-like functionality of L/V compared to L/A (Fig. 9A).
12 – NF-κB Luciferase Assay
Luciferase experiments were performed in human HEK293T cells seeded in a 24-well plate at 100 000 cells in […]
pBABE NF-κB-RE/luc2P reporter plasmid. Cells were transfected using Lipofectamine™ LTX (Invitrogen) with PLUS™ reagent, with each well receiving 0.5 µg of each plasmid, 2.5 µl LTX and 0.5 µl PLUS reagent. The next day cells were treated with compounds, giving a final concentration of 1 µM compound and 0.01% DMSO. 6 hours later cells were washed with PBS, lysed with passive lysis buffer (Promega) and stored at -20°C.
Luciferase activity was measured suing the Promega luciferase assay. In a black 384-well plate 3µl of clarified lysate was mixed with 15µl luciferase assay reagent and after 15 minutes luminescence was measured in a Pherastar FS. […]
NMR spectra were recorded on a Bruker 500 Ultrashield or a Bruker Ascend 400. […] High Resolution Mass Spectra (HRMS) were recorded on a Bruker micrOTOF. […]

Another assay has as its system Na+ channel (site 2). Put plainly: CEREP ExpresSProfile. It counts as binding. The note with it: 1 µM.
In the next assay the test system is SKCa channel. The assay is described as follows: CEREP ExpresSProfile. It counts as binding. The note with it: 1 µM.
Another assay has as its target CXCR2 (IL-8B) (h) (Homo sapiens, UniProt P25025). The assay is described as follows: CEREP ExpresSProfile. The note with it: read-out: Mean % of control specific binding (±SD).
In assay [2] the test system is 55 receptors, transporters and ion channels. Put plainly: receptor, transporter and ion channel screen. The format is binding. Conditions: 1 μM, whole panel with the exception of MT1.
A further assay deals with V1a (h) (Homo sapiens, UniProt P37288). Put plainly: CEREP ExpresSProfile. Conditions: read-out: Mean % of control specific binding (±SD).
The target in the next assay is D2S (h) (Homo sapiens, UniProt P14416). The assay is described as follows: CEREP ExpresSProfile. Conditions: read-out: Mean % of control specific binding (±SD).
The target in another assay is M2 (h) (Homo sapiens, UniProt P08172). The assay is described as follows: CEREP ExpresSProfile. The note with it: read-out: Mean % of control specific binding (±SD).
A further assay has as its system alpha 2 (non-selective). The assay is described as follows: CEREP ExpresSProfile. It counts as binding. The note with it: 1 µM.
For the next assay, the target named is 5-HT1A (h) (Homo sapiens, UniProt P08908). The assay is described as follows: CEREP ExpresSProfile. The note with it: read-out: Mean % of control specific binding (±SD).
A further assay addresses NTS1 (NT1) (h) (Homo sapiens, UniProt P30989). The assay is described as follows: CEREP ExpresSProfile. The note with it: read-out: Mean % of control specific binding (±SD).

Each structure is given as a SMILES string. pIC50: −log10 of the molar value.

V1a (h), sequence (P37288 whole entry): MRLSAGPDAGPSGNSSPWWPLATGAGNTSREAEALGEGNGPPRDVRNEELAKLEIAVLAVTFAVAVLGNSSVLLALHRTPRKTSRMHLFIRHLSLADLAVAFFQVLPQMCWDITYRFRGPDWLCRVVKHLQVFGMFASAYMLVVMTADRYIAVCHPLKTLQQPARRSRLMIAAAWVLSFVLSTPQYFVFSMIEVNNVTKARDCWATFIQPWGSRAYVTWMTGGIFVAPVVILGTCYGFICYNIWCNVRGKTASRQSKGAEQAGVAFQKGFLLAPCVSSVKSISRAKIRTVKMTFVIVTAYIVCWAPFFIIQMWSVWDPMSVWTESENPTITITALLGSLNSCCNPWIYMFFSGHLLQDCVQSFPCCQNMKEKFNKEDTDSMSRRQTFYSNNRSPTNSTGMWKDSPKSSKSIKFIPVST
LKB1, sequence (Q15831 whole entry): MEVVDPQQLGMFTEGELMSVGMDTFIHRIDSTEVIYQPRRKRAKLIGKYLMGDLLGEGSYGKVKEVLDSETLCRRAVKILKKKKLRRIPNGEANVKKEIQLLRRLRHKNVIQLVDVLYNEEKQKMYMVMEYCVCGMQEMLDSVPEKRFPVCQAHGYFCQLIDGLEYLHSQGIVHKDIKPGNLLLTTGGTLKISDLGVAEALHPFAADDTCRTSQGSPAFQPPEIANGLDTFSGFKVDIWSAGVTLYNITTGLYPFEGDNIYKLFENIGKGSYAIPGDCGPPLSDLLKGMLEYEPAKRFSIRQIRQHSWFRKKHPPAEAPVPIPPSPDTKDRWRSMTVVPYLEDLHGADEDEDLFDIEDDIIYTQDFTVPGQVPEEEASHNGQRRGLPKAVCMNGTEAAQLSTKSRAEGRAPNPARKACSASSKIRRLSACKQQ
LKB1, sequence (Q7RTN6 whole entry partner): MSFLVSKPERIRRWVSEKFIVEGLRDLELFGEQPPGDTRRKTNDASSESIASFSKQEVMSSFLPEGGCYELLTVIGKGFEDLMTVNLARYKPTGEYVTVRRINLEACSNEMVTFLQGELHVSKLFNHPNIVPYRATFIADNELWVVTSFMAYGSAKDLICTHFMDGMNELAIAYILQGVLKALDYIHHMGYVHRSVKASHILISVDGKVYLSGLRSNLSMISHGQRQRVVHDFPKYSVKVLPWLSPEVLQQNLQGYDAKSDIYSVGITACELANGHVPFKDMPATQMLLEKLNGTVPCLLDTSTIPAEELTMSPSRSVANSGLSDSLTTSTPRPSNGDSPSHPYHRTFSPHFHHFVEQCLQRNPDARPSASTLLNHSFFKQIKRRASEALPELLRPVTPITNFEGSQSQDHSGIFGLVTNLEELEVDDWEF
LKB1, sequence (Q9Y376 whole entry partner): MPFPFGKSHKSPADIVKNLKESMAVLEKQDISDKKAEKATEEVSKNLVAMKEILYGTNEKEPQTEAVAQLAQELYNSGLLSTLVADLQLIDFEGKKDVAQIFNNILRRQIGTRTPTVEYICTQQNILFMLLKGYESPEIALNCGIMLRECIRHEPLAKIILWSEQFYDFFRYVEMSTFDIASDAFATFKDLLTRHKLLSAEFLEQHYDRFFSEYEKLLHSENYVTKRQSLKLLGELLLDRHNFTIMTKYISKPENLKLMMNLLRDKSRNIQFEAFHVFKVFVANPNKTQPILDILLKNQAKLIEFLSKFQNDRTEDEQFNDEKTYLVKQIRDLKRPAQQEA
D2S (h), sequence (P14416 1-414 isoform P14416-2): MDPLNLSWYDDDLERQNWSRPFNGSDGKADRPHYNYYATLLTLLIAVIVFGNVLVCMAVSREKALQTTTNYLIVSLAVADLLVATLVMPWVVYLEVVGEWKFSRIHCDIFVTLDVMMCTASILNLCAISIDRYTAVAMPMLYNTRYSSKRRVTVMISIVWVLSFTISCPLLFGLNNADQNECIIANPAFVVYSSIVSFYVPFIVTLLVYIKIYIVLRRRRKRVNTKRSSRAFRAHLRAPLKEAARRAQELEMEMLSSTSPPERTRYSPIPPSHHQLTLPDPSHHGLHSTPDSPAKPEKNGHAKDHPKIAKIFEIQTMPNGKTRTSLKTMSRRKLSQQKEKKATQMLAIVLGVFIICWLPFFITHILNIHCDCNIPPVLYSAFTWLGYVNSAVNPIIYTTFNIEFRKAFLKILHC
NTS1 (NT1) (h), sequence (P30989 whole entry): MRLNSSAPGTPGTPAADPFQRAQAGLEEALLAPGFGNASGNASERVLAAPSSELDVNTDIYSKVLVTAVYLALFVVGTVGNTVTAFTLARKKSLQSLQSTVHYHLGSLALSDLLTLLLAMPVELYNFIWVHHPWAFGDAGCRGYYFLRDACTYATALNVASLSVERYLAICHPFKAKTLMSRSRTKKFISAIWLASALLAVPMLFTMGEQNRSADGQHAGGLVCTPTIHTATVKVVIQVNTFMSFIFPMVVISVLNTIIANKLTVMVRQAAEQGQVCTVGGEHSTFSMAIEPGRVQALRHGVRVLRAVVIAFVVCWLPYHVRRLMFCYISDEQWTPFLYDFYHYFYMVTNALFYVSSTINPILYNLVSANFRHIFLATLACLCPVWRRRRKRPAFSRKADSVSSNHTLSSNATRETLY
p38a MAPK, sequence (Q16539 whole entry): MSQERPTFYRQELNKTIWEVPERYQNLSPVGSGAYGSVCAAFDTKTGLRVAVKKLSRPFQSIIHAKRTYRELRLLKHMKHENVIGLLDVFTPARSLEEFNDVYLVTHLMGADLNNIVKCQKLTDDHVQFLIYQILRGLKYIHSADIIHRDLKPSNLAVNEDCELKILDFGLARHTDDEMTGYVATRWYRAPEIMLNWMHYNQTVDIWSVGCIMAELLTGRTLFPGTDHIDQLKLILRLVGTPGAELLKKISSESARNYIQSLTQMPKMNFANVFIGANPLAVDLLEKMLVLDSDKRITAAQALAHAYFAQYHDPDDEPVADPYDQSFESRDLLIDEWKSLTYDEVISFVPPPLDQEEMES
BRD3 BD2 L/V, sequence (Q15059 306-416 L345V limits assumed): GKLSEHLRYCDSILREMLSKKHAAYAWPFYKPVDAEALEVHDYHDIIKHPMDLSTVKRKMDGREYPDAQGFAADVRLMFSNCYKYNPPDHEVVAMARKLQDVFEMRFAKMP
M2 (h), sequence (P08172 whole entry): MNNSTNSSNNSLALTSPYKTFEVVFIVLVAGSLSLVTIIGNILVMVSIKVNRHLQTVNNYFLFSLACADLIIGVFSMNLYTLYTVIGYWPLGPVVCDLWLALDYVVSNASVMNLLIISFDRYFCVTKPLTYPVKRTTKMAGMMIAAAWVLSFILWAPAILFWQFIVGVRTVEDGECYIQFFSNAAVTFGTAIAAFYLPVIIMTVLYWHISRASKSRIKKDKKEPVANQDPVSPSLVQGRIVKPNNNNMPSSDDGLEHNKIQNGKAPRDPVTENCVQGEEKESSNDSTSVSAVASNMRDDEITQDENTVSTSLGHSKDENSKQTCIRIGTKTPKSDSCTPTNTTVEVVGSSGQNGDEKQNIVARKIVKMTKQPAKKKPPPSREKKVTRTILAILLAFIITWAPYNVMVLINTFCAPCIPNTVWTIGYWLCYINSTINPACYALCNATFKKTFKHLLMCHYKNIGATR
CB1 (h), sequence (P21554 whole entry): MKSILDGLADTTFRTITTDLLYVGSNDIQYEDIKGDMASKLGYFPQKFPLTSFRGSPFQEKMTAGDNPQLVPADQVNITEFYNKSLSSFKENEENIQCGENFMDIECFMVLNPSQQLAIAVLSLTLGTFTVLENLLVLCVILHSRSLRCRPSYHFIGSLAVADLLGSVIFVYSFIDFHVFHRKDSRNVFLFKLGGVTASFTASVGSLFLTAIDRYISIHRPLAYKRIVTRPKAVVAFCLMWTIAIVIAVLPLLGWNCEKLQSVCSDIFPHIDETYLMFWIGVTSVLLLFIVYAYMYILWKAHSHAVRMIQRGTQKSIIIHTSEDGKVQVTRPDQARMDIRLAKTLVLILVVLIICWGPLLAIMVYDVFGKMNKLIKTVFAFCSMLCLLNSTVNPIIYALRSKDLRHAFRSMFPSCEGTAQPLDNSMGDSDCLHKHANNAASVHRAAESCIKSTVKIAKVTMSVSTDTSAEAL
5-HT1A (h), sequence (P08908 whole entry): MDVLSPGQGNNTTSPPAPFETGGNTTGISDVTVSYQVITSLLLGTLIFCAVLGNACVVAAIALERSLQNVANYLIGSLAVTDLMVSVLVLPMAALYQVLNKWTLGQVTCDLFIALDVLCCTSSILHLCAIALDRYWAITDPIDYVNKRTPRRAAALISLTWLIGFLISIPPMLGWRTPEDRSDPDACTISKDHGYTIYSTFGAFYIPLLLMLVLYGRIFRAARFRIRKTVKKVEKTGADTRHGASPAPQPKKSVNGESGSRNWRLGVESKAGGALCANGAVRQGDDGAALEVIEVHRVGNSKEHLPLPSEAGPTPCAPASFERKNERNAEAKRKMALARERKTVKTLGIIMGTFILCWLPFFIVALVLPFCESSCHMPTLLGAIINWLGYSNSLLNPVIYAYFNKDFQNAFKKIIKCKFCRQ
PDK1, sequence (O15530 whole entry): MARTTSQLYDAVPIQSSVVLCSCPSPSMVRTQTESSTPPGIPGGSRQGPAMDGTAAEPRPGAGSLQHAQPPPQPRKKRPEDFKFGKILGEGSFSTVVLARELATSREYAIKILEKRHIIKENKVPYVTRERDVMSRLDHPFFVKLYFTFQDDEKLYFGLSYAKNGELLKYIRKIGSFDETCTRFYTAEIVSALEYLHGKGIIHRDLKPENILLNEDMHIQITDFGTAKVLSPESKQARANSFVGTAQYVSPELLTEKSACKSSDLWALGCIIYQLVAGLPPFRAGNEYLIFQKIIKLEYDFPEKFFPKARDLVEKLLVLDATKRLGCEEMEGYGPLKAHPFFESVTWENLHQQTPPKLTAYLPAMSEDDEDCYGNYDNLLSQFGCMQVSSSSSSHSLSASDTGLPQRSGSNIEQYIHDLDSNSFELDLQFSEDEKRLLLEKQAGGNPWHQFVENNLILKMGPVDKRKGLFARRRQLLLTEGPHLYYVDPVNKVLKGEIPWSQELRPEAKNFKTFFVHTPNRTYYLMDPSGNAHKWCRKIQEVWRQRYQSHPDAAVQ
Text for CB1 (h): (§5) Receptor Reference Compound Mean % of control specific
Receptor & Ion-Channel Screening
CEREP ExpresSProfile panel
Text for CXCR2 (IL-8B) (h): as §5
Receptor & Ion-Channel Screening
CEREP ExpresSProfile panel

Consider `CC[C@@H](C(=O)OC)[C@@H]1N=C(c2ccc(Cl)cc2)c2ccc(OC)cc2-n2c(C)nnc21` (racemic) [Compound 8], for which the pIC50 (in general, −log10 of the IC50, conventionally taken in molar units) at BRD2 BD1 L/V was 6.50; on BRD3 BD2 L/V, 7.10; at BRD2 BD2 WT, 5.40; at BRD4 BD2 WT, 5.50.
Take `COC(=O)[C@H](C)[C@@H]1N=C(c2ccc(Cl)cc2)c2ccc(OC)cc2-n2c(C)nnc21` [(2R,3S)-7]: the remaining activity at 1 µM on LKB1 amounted to 91%; on PDK1 it was 97%; at HER4, 114%; at p38a MAPK, 101%; at GSK3b, 95%; on TTK, 102%. For the same molecule, the remaining activity at 1 µM on CB1 (h) stood at 90%; on CCR1 (h), 102%; at CXCR2 (IL-8B) (h) it was 96%; at V1a (h), 102%; at D2S (h), 95%; at M2 (h), 105%. Besides, the remaining activity at 1 µM at 5-HT1A (h) is 104%; at NTS1 (NT1) (h) it was 106%. Besides, the “effect on NF-κB signalling” value in [1] is on record as “strongly impacted on NF-κB signalling”. In addition, the “Mean % of control specific binding (±SD)” value is listed as 105 (6) % in the assay with Na+ channel (site 2), 103 (10) % in the assay on SKCa channel and 98 (0) % in the assay with alpha 2 (non-selective). Further, the inhibition entry in assay [2] is on record as “no more than 20%”.

(Values after paper PMC5909127, “Optimization of a “bump-and-hole” approach to allele-selective BET bromodomain inhibition” (Chemical Science, 2018).)
